Test system: SNU-C5/WT
Conditions: mouse, in vivo

## O=c1[nH]cc(F)c(=O)[nH]1 [5FU, 5-fluorouracil]
  cell proliferation of tumor cells (Ki67 fluorescence staining): not able to decrease the proliferative ability of tumor cells
  tumor formation (tumor volume): does not effectively inhibit tumor formation
